Measurements: US5955076A, “Immunoactive peptides and antibodies and their use in anti-allergy treatment” (Peptide Therapeutics Limited, priority 1989, dated 1999)
Where no end group is shown, it is not given here.

Assays:
[1] = test system: rat peritoneal mast cells; set-up: dose or concentration left out as unconfirmed; conditions: concentration range; in words; cited from earlier work
[2] = test system: rats experimentally sensitised to ovalbumin; test: Serum histamine after systemic ovalbumin challenge of immunised, experimentally sensitised rats; assay type: in vivo, rat

Substance	non-cytolytic release of histamine from rat peritoneal mast cells in vitro [1]	Histamine release ([2]; A = immunised before experimental sensitisation, Control A 300) [ng/mL]	Histamine release ([2]; B = immunised after experimental sensitisation, Control B 950) [ng/mL]
KTKGSGFFVF [decapeptide (sequence 497-506)]	dose-dependent histamine release		
RKTKGSGFF [nonapeptide (sequence 496-504)]	dose-dependent histamine release		
KTKGSGFF [octapeptide (sequence 497-504)]	dose-dependent histamine release		
Lys-Tyr-Asn-Gly-Ser-Asn-Gln-Arg-Phe-Phe-Ile-Phe-NH2 (KYNGSNQRFFIF-NH2) [F49, histamine releasing rat ε-chain dodecapeptide, used as immunogen]		0	50
